Measurements: US8524716B2, “Macrocyclic indoles as hepatitis C virus inhibitors” (priority 2007, dated 2013)
Where two headings read alike, the source gives them in different places.

Experiments:
[1] = test system: HCV replicons (NS3-NS5B regions of HCV type 1b) in Huh-Luc cells; experiment: HCV replicon assay in Huh-7 luc/neo (Huh-Luc) cells, luciferase readout; assay type: cell-based; settings: Hepatitis C virus, Huh-7, 72 h, three days incubation, luciferase activity
Description: The compounds of formula (I) were examined for activity in the inhibition of HCV RNA replication in a cellular assay. […] The cellular assay was based on a bicistronic expression construct, as described by Lohmann et al. (1999) Science vol. 285 pp. 110-113 with modifications described by Krieger et al. (2001) Journal of Virology 75: 4614-4624, in a multi-target screening strategy. In essence, the method was as follows.
The assay utilized the stably transfected cell line Huh-7 luc/neo (hereafter referred to as Huh-Luc). This cell line harbors an RNA encoding a bicistronic expression construct comprising the wild type NS3-NS5B regions of HCV type 1b translated from an Internal Ribosome Entry Site (IRES) from encephalomyocarditis virus (EMCV), preceded by a reporter portion (firefly luciferase), and a selectable marker portion (neo^R, neomycine phosphotransferase). The construct is bordered by 5′ and 3′ NTRs (non-translated regions) from HCV type 1b. Continued culture of the replicon cells in the presence of G418 (neo^R) is dependent on the replication of the HCV RNA. The stably transfected replicon cells that express HCV RNA, which replicates autonomously and to high levels, encoding inter alia luciferase, were used for screening the antiviral compounds.
The replicon cells were plated in 384 well plates in the presence of the test and control compounds which were added in various concentrations. Following an incubation of three days, HCV replication was measured by assaying luciferase activity (using standard luciferase assay substrates and reagents and a Perkin Elmer ViewLux™ ultraHTS microplate imager). […] The inhibitory activity of the compound on luciferase activity was monitored on the Huh-Luc cells, enabling a dose-response curve for each test compound. EC50 values were then calculated, which value represents the amount of the compound required to decrease the level of detected luciferase activity by 50%, or more specifically, the ability of the genetically linked HCV replicon RNA to replicate.

HCV NS5B = HCV NS5B (Hepatitis C virus genotype 1b (strain HC-J4), UniProt O92972); experiment: biochemical; assay type: biochemical
Procedure: The cDNA encoding NS5B amino acid 1-570 (HC-J4, genotype 1b, pCV-J4L6S, genebank accession number AF054247) was subcloned into the Nhe I and Xho I restriction sites of pET-21b. Expression of the subsequent His-tagged C-terminal 21 amino acid deleted NS5B was performed as follows:
The NS5B expression construct was transformed into E. coli BL21(DE3) (Novagen, Madison, Wis.). Five milliliters of LB-medium supplemented with ampicillin (50 μg/mL) was inoculated with one colony. When the pre-culture reached an optical density of 0.6 measured at 600 nm, it was transferred to fresh LB-medium supplemented with ampicillin, at a ratio of 1:200. Cells were grown to an optical density at 600 nm of 0.6, after which the expression cultures were shifted to a growth temperature of 20° C. following induction with isopropyl-1-thio-β-D-galactopyranoside and MgCl2 at a final concentration of 0.4 mM and 10 μM, respectively. After ten hours of induction, cells were harvested by centrifugation and resuspended in 20 mM Tris-HCl, pH 7.5, 300 mM NaCl, 10% glycerol, 0.1% NP40, 4 mM MgCl2, 5 mM DTT supplemented with EDTA-free Complete Protease Inhibitor (Roche, Basel, Switzerland). Cell suspensions were disrupted by sonication and incubated with 10-15 mg/L of DNase I (Roche, Basel, Switzerland) for 30 minutes. Cell debris was removed through ultracentrifugation at 30,000×g for 1 hour and clarified cell lysate was flash frozen and stored at −80° C. prior to purification.
Clarified cell lysate was thawed and subsequently loaded onto a 5 mL pre-packed HisTrap FF column equilibrated with 25 mM HEPES, pH 7.5, 500 mM NaCl, 10% glycerol and 5 mM DTT. Proteins were eluted with 500 mM imidazole at a flow rate of 1 mL/min. Fractions containing the protein of interest were applied onto a pre-packed 26/10 HiPrep Desalting Column equilibrated with 25 mM HEPES, pH 7.5, 150 mM NaCl, 10% glycerol and 5 mM DTT. The buffer-exchanged NS5B peak was then applied onto a 20 mL Poly-U Sepharose column. Protein was eluted with an increasing salt gradient and fractions collected. Protein purity was assessed on Nu-PAGE pre-cast gels (Invitrogen, Carlsbad, Calif.). Purified NS5B samples were concentrated using Centri-Prep concentrators (Millipore, Billerica, Mass., USA) and protein concentrations were determined by Bradford assay (Pierce, Rockford, Ill., USA).
Measurement of HCV NS5B polymerization activity was performed by evaluating the amount of radio labeled GTP incorporated by the enzyme in a newly synthesized RNA using heteropolymeric RNA template/primer. The high-throughput RNA dependent RNA polymerase (RdRp) assay was carried out in 384-well plates using 100 nM enzyme, 300 nM 5′-biotinylated oligo(rG13)/poly(rC) primer-template, 600 nM of GTP, and 0.1 μCi of [^3H]GTP in 25 mM Tris-HCl, pH 7.5, 5 mM MgCl2, 25 mM KCl, 17 mM NaCl and 3 mM of dithiothreitol (DTT). Test compounds were dissolved in DMSO. The test compounds were added to the preformed polymerase-template complex, and incubated at room temperature for 15 min before the addition of nucleoside triphosphates (NTP). The 30 μl reaction was terminated after 2 h at 25° C. upon addition of 30 μl A PVT-SPA beads (Amersham Biosciences RPNQ0009, 5 mg/ml in 0.5 M EDTA).

[2] = 100 nM enzyme, [3H]GTP incorporation, 2 h at 25° C., read-out: IC50 (μM) Enzymatic assay

HCV NS5B, sequence (O92972 2420-3010 limits assumed): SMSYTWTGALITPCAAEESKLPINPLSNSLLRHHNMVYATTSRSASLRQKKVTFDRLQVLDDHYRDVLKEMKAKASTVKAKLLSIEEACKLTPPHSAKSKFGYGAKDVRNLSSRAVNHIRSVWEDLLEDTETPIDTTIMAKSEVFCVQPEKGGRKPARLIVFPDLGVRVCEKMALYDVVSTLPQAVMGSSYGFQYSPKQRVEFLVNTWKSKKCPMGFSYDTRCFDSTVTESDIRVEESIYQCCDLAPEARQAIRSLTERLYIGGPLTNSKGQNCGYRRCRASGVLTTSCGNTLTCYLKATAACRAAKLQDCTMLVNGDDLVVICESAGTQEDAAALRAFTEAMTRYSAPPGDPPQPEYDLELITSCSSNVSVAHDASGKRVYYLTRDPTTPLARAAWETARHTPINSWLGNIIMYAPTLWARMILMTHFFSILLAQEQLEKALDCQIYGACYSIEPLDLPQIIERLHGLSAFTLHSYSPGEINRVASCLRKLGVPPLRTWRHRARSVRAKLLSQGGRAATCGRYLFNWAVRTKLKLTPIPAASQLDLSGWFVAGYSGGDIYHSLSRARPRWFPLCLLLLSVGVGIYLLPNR

Row | Structure (SMILES) | EC50 [1] [µM] | IC50 (HCV NS5B; [2]) [µM] | other results
1 | O=C1Cn2c(-c3ccc(OCc4cc(N5CCCC5=O)ccc4N4CCOCC4)cc3)c(C3CCCCC3)c3ccc(cc32)C(=O)NCCC=CCCN1 | – | – | ring closure, isolated yield (from C=CCCNC(=O)Cn1c(-c2ccc(OCc3cc(N4CCCC4=O)ccc3N3CCOCC3)cc2)c(C2CCCCC2)c2ccc(C(=O)NCCC=C)cc21, rcm bond, 15-membered ring, Hoveyda-Grubbs 1st gen (2 portions), DCE, 80.0 °C): 25%
2 | CN1CCCCN(C)S(=O)(=O)NC(=O)c2ccc3c(C4CCCCC4)c(-c4ccc(Cl)cc4)n(c3c2)CC1=O [Cpd 24, 18-(4-Chloro-phenyl)-17-cyclohexyl-4,9-dimethyl-10,10-dioxo-10λ^6-thia-1,4,9,11-tetraaza-tricyclo[11.5.2.016,19]icosa-13(20),14,16(19),17-tetraene-3,12-dione] | 0.53 | – | ring closure, isolated yield (amide bond, 15-membered ring): 12%
3 | CS(=O)(=O)N1CCN(c2ccc([N+](=O)[O-])cc2COc2ccc(-c3c(C4CCCCC4)c4ccc5cc4n3CC(=O)NCCC=CCCNC5=O)cc2)CC1 | – | – | ring closure, isolated yield (rcm bond, 15-membered ring, Hoveyda-Grubbs 1st gen (2 portions), DCE, 80.0 °C): 70%
4 | CN1C/C=C\CNC(=O)Cn2c(-c3ccc(OCc4cc(N5CCCC5=O)ccc4N4CCN(S(C)(=O)=O)CC4)cc3F)c(C3CCCCC3)c3ccc(cc32)C(=O)NS1(=O)=O [Cpd 19, 17-cyclohexyl-18-(2-fluoro-4-(2-(4-methanesulfonyl-piperazin-1-yl)-5-(2-oxo-pyrrolidin-1-yl)-benzyloxy)-phenyl)-9-methyl-10,10-dioxo-10λ^6-thia-1,4,9,11-tetraaza-tricyclo[11.5.2.0^16,19]icosa-6,13(20),14,16(19),17-pentaene-3,12-dione] | 2.36 | 0.042 | –
5 | CS(=O)(=O)N1CCN(c2ccc(N3CCCC3=O)cc2COc2ccc(-c3c(C4CCCCC4)c4ccc5cc4n3CC(=O)NCC/C=C\CCNC5=O)c(F)c2)CC1 [Cpd 15, 17-Cyclohexyl-18-[2-fluoro-4-[2-(4-methanesulfonyl-piperazin-1-yl)-5-(2-oxo-pyrrolidin-1-yl)-benzyloxy]-phenyl]-1,4,11-triaza-tricyclo[11.5.2.0^16,19]icosa-7,13(20),14,16(19),17-pentaene-3,12-dione] | 0.27 | 1.58 | –
6 | COc1ccc(-c2ccc(Cl)cc2)c(-c2ccc3cc(-c4c(C5CCCCC5)c5ccc6cc5n4CC(=O)NCC/C=C\CCNC6=O)ccc3n2)c1 [Cpd 16, 18-[2-(4′-Chloro-4-methoxy-biphenyl-2-yl)-quinolin-6-yl]-17-cyclohexyl-1,4,11-triaza-tricyclo[11.5.2.0^16,19]icosa-7,13(20),14,16(19),17-pentaene-3,12-dione] | 17.6 | 1.44 | –
7 | CS(=O)(=O)N1CCN(c2ccc(N3CCCC3=O)cc2COc2ccc(-c3c(C4CCCCC4)c4ccc5cc4n3CC(=O)NCC/C=C\CCNC5=O)cc2)CC1 [Cpd 12, 17-Cyclohexyl-18-[4-[2-(4-methanesulfonyl-piperazin-1-yl)-5-(2-oxo-pyrrolidin-1-yl)-benzyloxy]-phenyl]-1,4,11-triaza-tricyclo[11.5.2.0^16,19]icosa-7,13(20),14,16(19),17-pentaene-3,12-dione] | 0.27 | 0.36 | –
8 | Cc1nc(C)c(-c2ccc3cc(-c4c(C5CCCCC5)c5ccc6cc5n4CC(=O)NCC/C=C\CS(=O)(=O)NC6=O)ccc3n2)s1 [Cpd 18, 17-cyclohexyl-18-[2-(2,4-dimethyl-thiazol-5-yl)-quinolin-6-yl]-10,10-dioxo-10λ^6-thia-1,4,11-triaza-tricyclo[11.5.2.0^16,19]icosa-7,13(20),14,16(19),17-pentaene-3,12-dione] | 12.8 | 0.04 | –
9 | COc1ccc(-c2c(C3CCCCC3)c3ccc4cc3n2CC(=O)NCCCCN(C)S(=O)(=O)NC4=O)cc1 [Cpd 25, 17-Cyclohexyl-18-(4-methoxy-phenyl)-9-methyl-10,10-dioxo-10λ^6-thia-1,4,9,11-tetraaza-tricyclo[11.5.2.016,19]icosa-13(20),14,16(19),17-tetraene-3,12-dione] | 1.76 | 0.18 | –
10 | CC(=O)Nc1ccc(N2CCN(S(C)(=O)=O)CC2)c(COc2ccc(-c3c(C4CCCCC4)c4ccc5cc4n3CC(=O)NCC/C=C\CCNC5=O)cc2)c1 [Cpd 5, 17-cyclohexyl-18-[4-[2-(4-methanesulfonylpiperazin-1-yl)-5-acetylamino-benzyloxy]phenyl]-1,4,11-triazatricyclo[11.5.2.0^16,19]icosa-7,13(20),14,16(19),17-pentaene-3,12-dione] | 0.58 | 0.29 | –
11 | COc1ccc(-c2c(C3CCCCC3)c3ccc4cc3n2CC(=O)NCCCCCN(C)S(=O)(=O)NC4=O)cc1 [Cpd 26, 18-Cyclohexyl-19-(4-methoxy-phenyl)-10-methyl-11,11-dioxo-11λ^6-thia-1,4,10,12-tetraaza-tricyclo[12.5.2.017,20]henicosa-14(21),15,17(20),18-tetraene-3,13-dione] | 0.35 | – | ring closure, isolated yield (amide bond, 16-membered ring, CDI, CH3CN, 2 steps): 31%
12 | COc1ccc(-c2c(C3CCCCC3)c3ccc4cc3n2CC(=O)NCCN(C)CCNS(=O)(=O)NC4=O)cc1 [Cpd 27, 18-Cyclohexyl-19-(4-methoxy-phenyl)-7-methyl-11,11-dioxo-11λ^6-thia-1,4,7,10,12-pentaaza-tricyclo[12.5.2.017,20]henicosa-14(21),15,17(20),18-tetraene-3,13-dione] | 3.47 | 0.44 | –
13 | O=C1Cn2c(-c3ccc(OCc4cc(N5CCCC5=O)ccc4N4CCOCC4)cc3)c(C3CCCCC3)c3ccc(cc32)C(=O)NCC/C=C\CCN1 [Cpd 11, 17-Cyclohexyl-18-[4-[2-morpholin-4-yl-5-(2-oxo-pyrrolidin-1-yl)-benzyloxy]-phenyl]-1,4,11-triaza-tricyclo[11.5.2.0^16,19]icosa-7,13(20),14,16(19),17-pentaene-3,12-dione] | 0.69 | 0.45 | –
14 | CS(=O)(=O)N1CCN(c2ccc(N3CCCC3=O)cc2COc2ccc(-c3c(C4CCCCC4)c4ccc5cc4n3CC(=O)NCCC=CCS(=O)(=O)NC5=O)cc2)CC1 [Cpd 14, 17-Cyclohexyl-18-[4-[2-(4-methanesulfonyl-piperazin-1-yl)-5-(2-oxo-pyrrolidin-1-yl)-benzyloxy]-phenyl]-10,10-dioxo-10λ^6-thia-1,4,11-triaza-tricyclo-[11.5.2.0^16,19]icosa-7,13(20),14,16(19),17-pentaene-3,12-dione] | 2.04 | – | IC50 (HCV NS5B): 0.88 µM
